Data taken from patent publication US20210246128A1, “BICYCLE TOPOISOMERASE I INHIBITING COMPOUNDS, PROCESS FOR PREPARATION AND USE THEREOF” (Council of Scientific & Industrial Research, priority 2018, published 2021).

Tests used:
Format in all cases: biochemical
[1] = target: T1, recombinant human TopI (HTopI) (Homo sapiens, UniProt P11387); assay: Gel based plasmid DNA relaxation assay with recombinant TopI (in vitro); details: recombinant human TopI, plasmid DNA relaxation
T1 sequence (P11387 1-765): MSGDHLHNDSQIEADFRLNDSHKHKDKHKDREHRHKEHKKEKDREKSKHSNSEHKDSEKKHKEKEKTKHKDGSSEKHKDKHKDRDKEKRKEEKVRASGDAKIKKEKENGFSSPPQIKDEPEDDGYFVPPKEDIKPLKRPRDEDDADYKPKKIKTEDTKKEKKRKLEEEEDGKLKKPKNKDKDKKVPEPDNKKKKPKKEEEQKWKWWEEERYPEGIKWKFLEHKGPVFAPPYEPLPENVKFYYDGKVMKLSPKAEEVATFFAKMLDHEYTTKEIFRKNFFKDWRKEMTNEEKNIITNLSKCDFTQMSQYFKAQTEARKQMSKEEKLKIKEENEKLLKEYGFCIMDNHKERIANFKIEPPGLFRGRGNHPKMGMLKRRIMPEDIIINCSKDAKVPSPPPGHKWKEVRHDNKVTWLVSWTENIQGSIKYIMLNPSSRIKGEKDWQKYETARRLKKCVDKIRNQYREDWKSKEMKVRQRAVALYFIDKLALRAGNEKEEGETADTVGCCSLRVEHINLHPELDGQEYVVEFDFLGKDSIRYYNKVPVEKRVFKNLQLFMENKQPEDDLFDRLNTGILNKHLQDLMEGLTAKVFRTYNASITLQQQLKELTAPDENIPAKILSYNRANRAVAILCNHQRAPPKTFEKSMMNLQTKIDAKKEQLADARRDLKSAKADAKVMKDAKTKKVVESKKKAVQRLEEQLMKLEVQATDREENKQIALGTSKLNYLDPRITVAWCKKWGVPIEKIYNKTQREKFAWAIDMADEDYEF
Protocol: (§1) Human ToPI Inhibition in Plasmid DNA Relaxation Assays with Recombinant TopI (In Vitro) or MCF7 Cell Lysates (Ex Vivo)
(§2) Relaxation of supercoiled pBSSK(^+) DNA with recombinant human TopI (HTopI) at a molar ratio of 3:1 at 37° C. for 30 minutes was performed

[2] = target: T2, endogenous TopI from the whole cell extracts of human breast adenocarcinoma (MCF7) cell (Homo sapiens, UniProt P11387); assay: Plasmid DNA relaxation assay with MCF7 cell lysates (ex vivo); details: MCF7 cell lysates as source of TopI
T2 construct: TopI enzyme in the extract is conserved in its native structure among a plethora of other cellular proteins; endogenous in cells; host or cells: MCF7 whole cell extract
T2 sequence (P11387 1-765): T1 sequence (P11387 1-765)
Protocol: as §1, §2
cellular extracts were utilized as a source of TopI (ex vivo) in plasmid DNA relaxation assays. TopI enzyme in the extract is conserved in its native structure among a plethora of other cellular proteins.

[3] = target: T3, human TopI-DNA cleavage complexes (TopIcc) (Homo sapiens, UniProt P11387); assay: Plasmid DNA cleavage assay; details: compared with CPT, FIG. 3 and 4
T3 sequence (P11387 1-765): T1 sequence (P11387 1-765)
Protocol: Cleavage reaction and electrophoresis in agarose gel were performed as described in B. Kundu, J. Med. Chem. 2019, 62, 3428-3446. Lane 1 comprises 50 fmol of pBluescript (SK^+) supercoiled DNA. Lanes 2-9 are same as lane 1 but incubated with equal amounts (100 fmol) of HTopI at the indicated concentration of CPT or compound 24 or only DMSO.
The mechanism of TopI inhibition with compound 24 in the plasmid DNA cleavage assays was investigated.

IC50 [1]: 21 nM
IC50 [2]: 1830 nM
SMILES: Nc1ccc(-c2ccc3ncc(-c4nnco4)c(NCCCn4ccnc4)c3c2)cn1 [Compound 24, N-(3-(1H-imidazol-1-yl)propyl)-6-(6-aminopyridin-3-yl)-3-(1,3,4-oxadiazol-2-yl)quinolin-4-amine]
stabilisation/trapping of TopI-DNA cleavage complexes (TopIcc) [3]: capable of stabilising TopIcc formation like CPT
